In ChEMBL document CHEMBL5375981, “Enhanced Tumor Targeting and Penetration of Proteolysis-Targeting Chimeras through iRGD Peptide Conjugation: A Strategy for Precise Protein Degradation in Breast Cancer” (J Med Chem, 2023):
Values after ≈ are worked out from the molar mass of the structure shown. Blank lines part the entries; values can stand above or below the compound they belong to. Active and inactive are the calls of the source. The calls are words filed in the database; no cut-off is given here.

Experiments:
[1] = Solubility in distilled water measured for 30 mins by ultraviolet spectrophotometry analysis; assay type: physicochemical
[2] = Stability of compound in PBS containing 5% serum at 50 uM measured after 72 hrs by LC-MS analysis; assay type: physicochemical, cell-free; conditions: read-out: Stability
[3] = biological target: Bromodomain-containing protein 4 (Homo sapiens) (UniProt O60885); assay: Induction of BRD4 degradation in human MDA-MB-231 cells harboring high integrin alphaVbeta3 expression at 0.11 uM incubated for 24 hrs by Western blot analysis; assay type: cell-based
[4] = Drug release in PBS assessed as increase in (2S)-1-((R)-2-(tert-butyl)-17-((S)-4-(4-chlorophenyl)-2,3,9-trimethyl-6H-thieno[3,2-f][1,2,4]triazolo[4,3-a][1,4]diazepin-6-yl)-4,16-dioxo-6,9,12-trioxa-3,15-diazaheptadecanoyl)-4-hydroxy-N-((S)-1-(4-(4-methylthiazol-5-yl)phenyl)ethyl)pyrrolidine-2-carboxamide concentration at 50 uM in presence of GSH by LC-MS analysis; assay type: ADME; conditions: buffer, TDE = time-dependent effect
[5] = biological target: Bromodomain-containing protein 4 (Homo sapiens) (UniProt O60885); assay: Induction of BRD4 degradation in human MCF7 cells harboring low integrin alphaVbeta3 expression at 0.01 to 1 uM incubated for 24 hrs by Western blot analysis; assay type: cell-based; conditions: dose 0.01-1 µM
[6] = biological target: Bromodomain-containing protein 4 (Homo sapiens) (UniProt O60885); assay: Induction of BRD4 degradation in human L02 cells lacking integrin alphaVbeta3 expression at 0.01 to 1 uM incubated for 24 hrs by Western blot analysis; assay type: cell-based; conditions: dose 0.01-1 µM
[7] = biological target: Bromodomain-containing protein 4 (Homo sapiens) (UniProt O60885); assay: Induction of BRD4 degradation in human MDA-MB-231 cells harboring high integrin alphaVbeta3 expression at 300 nM incubated for 16 to 20 hrs by Western blot analysis; assay type: cell-based; conditions: time 16-20 hrs
[8] = biological target: Bromodomain-containing protein 4 (Homo sapiens) (UniProt O60885); assay: Induction of BRD4 degradation in human MCF7 cells harboring low integrin alphaVbeta3 expression at 300 nM incubated for 12 hrs by immunofluorescence staining based confocal microscopic analysis; assay type: cell-based
[9] = biological target: Bromodomain-containing protein 4 (Homo sapiens) (UniProt O60885); assay: Induction of BRD4 degradation in human L02 cells lacking integrin alphaVbeta3 expression at 300 nM incubated for 12 hrs by immunofluorescence staining based confocal microscopic analysis; assay type: cell-based
[10] = biological target: Bromodomain-containing protein 4 (Homo sapiens) (UniProt O60885); assay: Induction of BRD4 degradation in human MDA-MB-231 cells harboring high integrin alphaVbeta3 expression at 1 uM incubated for 12 hrs by immunofluorescence staining based confocal microscopic analysis; assay type: cell-based
MDA-MB-231 [11] = assay: Antiproliferative activity against human MDA-MB-231 cells harboring high integrin alphaVbeta3 expression assessed as inhibition of cell growth incubated for 72 hrs by CCK-8 assay; assay type: functional, cell-based; conditions: MDA-MB-231, 72 h
MCF7 [12] = assay: Antiproliferative activity against human MCF7 cells harboring low integrin alphaVbeta3 expression assessed as inhibition of cell growth incubated for 72 hrs by CCK-8 assay; assay type: functional, cell-based; conditions: MCF7, 72 h
L02 [13] = assay: Antiproliferative activity against human L02 cells harboring minimal integrin alphaVbeta3 expression assessed as inhibition of cell growth incubated for 72 hrs by CCK-8 assay; assay type: functional, cell-based; conditions: L02, 72 h
[14] = biological target: Bromodomain-containing protein 4 (Homo sapiens) (UniProt O60885); assay: Induction of BRD4 degradation in human MCF7 cells harboring low integrin alphaVbeta3 expression at 0.04 uM incubated for 24 hrs by Western blot analysis; assay type: cell-based
[15] = biological target: Bromodomain-containing protein 4 (Homo sapiens) (UniProt O60885); assay: Induction of BRD4 degradation in human MCF7 cells harboring low integrin alphaVbeta3 expression at 0.11 uM incubated for 24 hrs by Western blot analysis relative to control; assay type: cell-based
[16] = biological target: Bromodomain-containing protein 4 (Homo sapiens) (UniProt O60885); assay: Induction of BRD4 degradation in human L02 cells lacking integrin alphaVbeta3 expression at 0.33 uM incubated for 24 hrs by Western blot analysis relative to control; assay type: cell-based
[17] = biological target: Bromodomain-containing protein 4 (Homo sapiens) (UniProt O60885); assay: Induction of BRD4 degradation in human MDA-MB-231 cells harboring high integrin alphaVbeta3 expression at 300 nM measured at 24 hrs by Western blot analysis; assay type: cell-based
[18] = biological target: Bromodomain-containing protein 4 (Homo sapiens) (UniProt O60885); assay: Induction of BRD4 degradation in human MCF7 cells harboring low integrin alphaVbeta3 expression at 300 nM measured at 16 hrs by Western blot analysis; assay type: cell-based
[19] = biological target: Bromodomain-containing protein 4 (Homo sapiens) (UniProt O60885); assay: Induction of BRD4 degradation in human MCF7 cells harboring low integrin alphaVbeta3 expression at 300 nM measured at 20 hrs by Western blot analysis relative to control; assay type: cell-based
[20] = biological target: Bromodomain-containing protein 4 (Homo sapiens) (UniProt O60885); assay: Induction of BRD4 degradation in human L02 cells lacking integrin alphaVbeta3 expression at 300 nM measured at 24 hrs by Western blot analysis relative to control; assay type: cell-based
MCF7 [21] = assay: Antimigratory activity against human MCF7 cells harboring low integrin alphaVbeta3 expression assessed as inhibition of cell migration at 200 nM incubated for 48 hrs by crystal violet staining based transwell assay; assay type: functional
L02 [22] = assay: Antimigratory activity against human L02 cells lacking integrin alphaVbeta3 expression assessed as inhibition of cell migration at 200 nM incubated for 48 hrs by crystal violet staining based transwell assay; assay type: functional
MDA-MB-231 [23] = assay: Antitumor activity against human MDA-MB-231 cells xenografted in BALB/C nude mouse assessed as tumor growth inhibition at 5 uM, iv administered every other day and measured after 21 days by vernier caliper method relative to control; assay type: functional; conditions: MDA-MB-231, 504 h, time 21 day, read-out: TGI
[24] = Toxicity in BALB/C mouse xenografted with human MDA-MB-231 cells assessed as weight loss at 5 uM, iv administered for 21 days and measured every 3 days; assay type: organism-based; conditions: in vivo, 504 h, time 21 day
[25] = Toxicity in BALB/C mouse xenografted with human MDA-MB-231 cells assessed as adverse reactions at 5 uM, iv administered for 21 days and measured every 3 days; assay type: organism-based; conditions: in vivo, 504 h, time 21 day
[26] = Toxicity in BALB/C mouse xenografted with human MDA-MB-231 cells assessed as effect on heart weight at 5 uM, iv administered every other day for 21 days; assay type: organism-based; conditions: in vivo, 504 h, time 21 day
[27] = Toxicity in BALB/C mouse xenografted with human MDA-MB-231 cells assessed as effect on liver weight at 5 uM, iv administered every other day for 21 days; assay type: organism-based; conditions: in vivo, 504 h, time 21 day
[28] = Toxicity in BALB/C mouse xenografted with human MDA-MB-231 cells assessed as effect on spleen weight at 5 uM, iv administered every other day for 21 days; assay type: organism-based; conditions: in vivo, 504 h, time 21 day
[29] = Toxicity in BALB/C mouse xenografted with human MDA-MB-231 cells assessed as effect on lung weight at 5 uM, iv administered every other day for 21 days; assay type: organism-based; conditions: in vivo, 504 h, time 21 day
[30] = Toxicity in BALB/C mouse xenografted with human MDA-MB-231 cells assessed as effect on kidney weight at 5 uM, iv administered every other day for 21 days; assay type: organism-based; conditions: in vivo, 504 h, time 21 day
[31] = Toxicity in BALB/C mouse xenografted with human MDA-MB-231 cells assessed as lung damage at 5 uM, iv administered every other day for 21 days and measured 37 days post treatment by H and E staining based assay; assay type: organism-based; conditions: in vivo, 1392 h, time 58 day
MDA-MB-231 [32] = assay: Antitumor activity against human MDA-MB-231 cells xenografted in BALB/C nude mouse assessed as disruption of tumor blood vessel wall at 5 uM, iv administered every other day and measured after 21 days by H and E staining based assay; assay type: functional, organism-based; conditions: time 21.0 day
[33] = Antitumor activity against patient-derived Breast cancer organoid assessed as inhibition of cell growth incubated for approximately 3 to 5 days by CCK-8 assay; assay type: functional, tissue-based; conditions: Homo sapiens

solubility at 0.5 h [1]: > 10 mM | remaining at 72 h, 50 µM [2]: 10.2%
SMILES: Cc1ncsc1-c1ccc([C@H](C)NC(=O)[C@@H]2C[C@@H](OC(=O)CCC(=O)N[C@@H](Cc3c[nH]cn3)C(=O)N[C@@H](Cc3c[nH]cn3)C(=O)NCC(=O)N[C@@H](CCCNC(=N)N)C(=O)NCC(=O)N[C@@H](CC(=O)O)C(=O)O)CN2C(=O)[C@@H](NC(=O)COCCOCCOCCNC(=O)C[C@@H]2N=C(c3ccc(Cl)cc3)c3c(sc(C)c3C)-n3c(C)nnc32)C(C)(C)C)cc1

SMILES: Cc1ncsc1-c1ccc([C@H](C)NC(=O)[C@@H]2C[C@@H](OC(=O)OCCSSCCOC(=O)CCC(=O)N[C@@H](CCCNC(=N)N)C(=O)NCC(=O)N[C@@H](CC(=O)O)C(=O)O)CN2C(=O)[C@@H](NC(=O)COCCOCCOCCNC(=O)C[C@@H]2N=C(c3ccc(Cl)cc3)c3c(sc(C)c3C)-n3c(C)nnc32)C(C)(C)C)cc1
Activity [3]: Active | solubility at 0.5 h [1]: > 10 mM | remaining at 72 h, 50 µM [2]: 94.6% | Drug metabolism [4]: Tde | Activity [5]: inactive | Activity [6]: inactive | Activity [7]: Active | Activity [8]: inactive | Activity [9]: inactive | Activity [10]: Active | IC50 (MDA-MB-231 [11]): 190 nM | IC50 (MCF7 [12]): 190 nM | IC50 (L02 [13]): 980 nM

Activity [3]: Active | solubility at 0.5 h [1]: 29.5 mM (≈ 30 mg/mL) | Activity [14]: Active | Activity [15]: 100% | Activity [16]: 100% | Activity [17]: Active | Activity [18]: Active | Activity [19]: 100% | Activity [20]: 100% | Activity [8]: Active | Activity [9]: Active | Activity [10]: Active | IC50 (MDA-MB-231 [11]): 90 nM | IC50 (MCF7 [12]): 30 nM
SMILES: Cc1ncsc1-c1ccc([C@H](C)NC(=O)[C@@H]2C[C@@H](O)CN2C(=O)[C@@H](NC(=O)COCCOCCOCCNC(=O)C[C@@H]2N=C(c3ccc(Cl)cc3)c3c(sc(C)c3C)-n3c(C)nnc32)C(C)(C)C)cc1
IC50 (L02 [13]): 400 nM | Activity (MCF7 [21]): Active | Activity (L02 [22]): Active | inhibition in vivo at 5 µM (MDA-MB-231 [23]): 36.3% | Activity [24]: Non-Toxic | Activity [25]: Non-Toxic | Activity [26]: Non-Toxic | Activity [27]: Non-Toxic | Activity [28]: Non-Toxic | Activity [29]: Non-Toxic | Activity [30]: Non-Toxic | Activity [31]: Toxic | Activity (MDA-MB-231 [32]): inactive | IC50 [33]: 2100 nM
